From PubChem BioAssay (NCI)
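Where inhibition never reached the appropriate level, the endpoint shown equals the highest concentration tested. Otherwise, values were interpolated linearly from a five-concentration, 48-hour dose response in 96-well plates. TGI: concentration producing complete growth inhibition.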

Tests used:
Assay in all cases: DTP human tumour cell line panel, 48 h
HCT-15 colon = system: HCT-15 colon
IGROV1 ovarian = system: IGROV1 ovarian
HOP-92 NSCLC = system: HOP-92 NSCLC
OVCAR-4 ovarian = system: OVCAR-4 ovarian
SN12C renal = system: SN12C renal
RPMI-8226 leukemia = system: RPMI-8226 leukemia
HT29 colon = system: HT29 colon
LOX IMVI melanoma = system: LOX IMVI melanoma
HCT-116 colon = system: HCT-116 colon
SF-539 CNS = system: SF-539 CNS
MDA-N = system: MDA-N
SF-295 CNS = system: SF-295 CNS
DU-145 prostate = system: DU-145 prostate
MOLT-4 leukemia = system: MOLT-4 leukemia
A549 NSCLC = system: A549 NSCLC
HL-60(TB) leukemia = system: HL-60(TB) leukemia
ACHN renal = system: ACHN renal
HS 578T breast = system: HS 578T breast
SF-268 CNS = system: SF-268 CNS
NCI-H522 lung = system: NCI-H522 lung
SR leukemia = system: SR leukemia
786-0 renal = system: 786-0 renal
SK-MEL-28 melanoma = system: SK-MEL-28 melanoma
PC-3 prostate = system: PC-3 prostate
NCI-H226 lung = system: NCI-H226 lung
TK-10 renal = system: TK-10 renal
OVCAR-5 ovarian = system: OVCAR-5 ovarian
MALME-3M melanoma = system: MALME-3M melanoma
U251 CNS = system: U251 CNS
K-562 leukemia = system: K-562 leukemia
EKVX NSCLC = system: EKVX NSCLC
NCI-H460 lung = system: NCI-H460 lung
MCF7 breast = system: MCF7 breast
OVCAR-3 ovarian = system: OVCAR-3 ovarian
MDA-MB-435 = system: MDA-MB-435
CCRF-CEM leukemia = system: CCRF-CEM leukemia
HOP-62 NSCLC = system: HOP-62 NSCLC
SNB-75 CNS = system: SNB-75 CNS
NCI/ADR-RES ovarian = system: NCI/ADR-RES ovarian
SNB-19 CNS = system: SNB-19 CNS
OVCAR-8 ovarian = system: OVCAR-8 ovarian
SK-MEL-5 melanoma = system: SK-MEL-5 melanoma
UACC-257 melanoma = system: UACC-257 melanoma
NCI-H23 lung = system: NCI-H23 lung
HCC-2998 colon = system: HCC-2998 colon
A498 renal = system: A498 renal
SW-620 colon = system: SW-620 colon

SMILES: O=[N+]([O-])c1cccnc1NCC1(CO)CCCC1
- TGI (HCT-15 colon): 37.7 µM
- TGI (IGROV1 ovarian): 38.7 µM
- TGI (HOP-92 NSCLC): 54.1 µM
- TGI (OVCAR-4 ovarian): > 100 µM
- TGI (SN12C renal): 53 µM
- TGI (RPMI-8226 leukemia): 59.1 µM
- TGI (HT29 colon): 34.8 µM
- TGI (LOX IMVI melanoma): 30.3 µM
- TGI (HCT-116 colon): 67 µM
- TGI (SF-539 CNS): 49.7 µM
- TGI (MDA-N): 42.3 µM
- TGI (SF-295 CNS): 56.2 µM
- TGI (DU-145 prostate): > 100 µM
- TGI (MOLT-4 leukemia): 40.5 µM
- TGI (A549 NSCLC): > 100 µM
- TGI (HL-60(TB) leukemia): 50.3 µM
- TGI (ACHN renal): 70.1 µM
- TGI (HS 578T breast): 54 µM
- TGI (SF-268 CNS): 70.7 µM
- TGI (NCI-H522 lung): 45.9 µM
- TGI (SR leukemia): 64.2 µM
- TGI (786-0 renal): 80.1 µM
- TGI (SK-MEL-28 melanoma): 51.3 µM
- TGI (PC-3 prostate): 37.8 µM
- TGI (NCI-H226 lung): 68.4 µM
- TGI (TK-10 renal): 79.3 µM
- TGI (OVCAR-5 ovarian): 87.1 µM
- TGI (MALME-3M melanoma): 37.5 µM
- TGI (U251 CNS): 31.2 µM
- TGI (K-562 leukemia): 53.2 µM
- TGI (EKVX NSCLC): 76.9 µM
- TGI (NCI-H460 lung): 47.6 µM
- TGI (MCF7 breast): > 100 µM
- TGI (OVCAR-3 ovarian): 46 µM
- TGI (MDA-MB-435): 44.1 µM
- TGI (CCRF-CEM leukemia): > 100 µM
- TGI (HOP-62 NSCLC): > 100 µM
- TGI (SNB-75 CNS): 34.9 µM
- TGI (NCI/ADR-RES ovarian): 49 µM
- TGI (SNB-19 CNS): > 100 µM
- TGI (OVCAR-8 ovarian): 50.7 µM
- TGI (SK-MEL-5 melanoma): 30.9 µM
- TGI (UACC-257 melanoma): 44.3 µM
- TGI (NCI-H23 lung): > 100 µM
- TGI (HCC-2998 colon): 32.8 µM
- TGI (A498 renal): > 100 µM
- TGI (SW-620 colon): 54.4 µM
